Source: PMC11823646, “Population pharmacokinetics of caspofungin in critically ill patients receiving extracorporeal membrane oxygenation—an ASAP ECMO study” (Antimicrobial Agents and Chemotherapy, 2024)

What was measured:
[1] = set-up: method as in PMID 17660480, PMID 11850256; settings: human, in vivo; cited from earlier work
[2] = Population pharmacokinetics of caspofungin in critically ill patients receiving ECMO; format: in vivo, human
Procedure: The present analysis is part of the ASAP ECMO study program that was conducted from November 2012 to November 2019 ([8]). The ASAP ECMO study was a prospective, open-labeled multicenter pharmacokinetic study performed in six ICUs across Australia, New Zealand, South Korea, and Switzerland. A detailed study protocol has been previously described elsewhere ([8], [9]), and as such, is only briefly outlined in this paper.
Patients were eligible for recruitment if they were adult (18–90 years old) ICU patients who were receiving caspofungin while undergoing ECMO therapy for cardiac and/or respiratory failure. Patients were excluded if they required massive blood transfusion (i.e., >50% of blood volume in the preceding 8 hours), received therapeutic plasma exchange in the preceding 24 hours, had bilirubin >150 µmol/L, were pregnant, or were known to be allergic to caspofungin.
Caspofungin was reconstituted and administered as an intermittent intravenous infusion in accordance with the standard administration protocol at each participating center. Caspofungin dosing regimens, ECMO modalities/configurations, and all other subsequent patient management (e.g., RRT application) were determined by the treating clinician in accordance with local clinical guidelines and practices.
Pharmacokinetic sampling was performed during a single dosing interval once the patient had been stabilized on ECMO. Blood samples were drawn from an existing arterial line and were collected into lithium-heparinized tubes. Blood samples were collected at 0, 0.25, 0.5, 0.75, 1, 1.5, 2, 3, 6, 8, 12, and 24 hours after commencement of infusion.
The blood samples were centrifuged at 3,000 × g for 10 minutes to obtain plasma, which was then frozen at –80°C and stored locally at participating sites. The frozen plasma samples were shipped on dry ice by a commercial courier company to the central bioanalysis laboratory at the University of Queensland Centre for Clinical Research (UQCCR) for bioanalysis.
Total caspofungin concentrations in plasma were measured by a validated ultra-high performance liquid chromatography method on a Nexera X2 system connected to a Shimadzu 8030 + triple quadrupole mass spectrometer (Shimadzu Corporation, Kyoto, Japan). Dicloxacillin was used as the internal standard. The assay was performed in batches, and samples were analyzed concurrently with calibration standards and quality-control replicates at high (18 mg/L), medium (3 mg/L), and low (0.6 mg/L) concentrations. The assay limit for caspofungin in plasma was 0.1 mg/L and linearity was established within a range of 0.1–20 mg/L. Precision and accuracy at three different concentrations were all within 12%. Bioanalysis methods were performed in accordance with the U.S. Food and Drug Administration’s guidance for industry on bioanalysis ([10]).
Plasma concentration-time data for caspofungin were analyzed using a nonlinear mixed-effect modeling approach in Monolix version 2021R2 (Lixoft, Antony, France) implementing the stochastic approximation expectation maximization (SAEM) algorithm. Plasma concentration-time data for caspofungin were fitted to one- and two-compartment disposition models with first-order elimination. Between-subject variability (BSV or ω) was described using an exponential model: […]

[3] = human, in vivo; cited from earlier work
Source text: It is challenging to ascertain the optimal dosing regimen for caspofungin based on MIC breakpoints. The European Committee on Antimicrobial Susceptibility Testing (EUCAST) MIC breakpoints have yet to be established for caspofungin against Candida spp. due to significant interlaboratory variation in MIC reporting ([18]). Until this problem is resolved, Candida isolates that are susceptible to anidulafungin and micafungin should also be considered susceptible to caspofungin.

[4] = human, in vivo; cited from earlier work; remark: listed apart in the source

For CC[C@H](C)C[C@H](C)CCCCCCCCC(=O)N[C@H]1C[C@@H](O)[C@@H](NCCN)NC(=O)[C@@H]2[C@@H](O)CCN2C(=O)[C@H]([C@H](O)CCN)NC(=O)[C@H]([C@H](O)[C@@H](O)c2ccc(O)cc2)NC(=O)[C@@H]2C[C@@H](O)CN2C(=O)[C@H]([C@@H](C)O)NC1=O [caspofungin], the “AUC0–24 exposure in healthy volunteers” value [1] is listed as 98 µg·h/mL, the “impact of ECMO on caspofungin pharmacokinetics” value ([2]; ECMO duration, mode and flow rate tested as covariates, no significant effect) is listed as “negligible impact” and the “LBW effect on V, Estimate (%RSE)” value ([2]; exponent in V=Vpop × (LBW/58.9)^1.24, final model) is listed as 1.24 (23.3). For the same compound, the AUC(0-t) ([2]; human, plasma, 8 critically ill patients on ECMO, maintenance dose 50 or 70 mg daily IV, median, read-out: median AUC0–24 exposure) was 115 µg·h/mL, the “CL, Estimate (%RSE)” value ([2]; typical population value, final one-compartment model with first-order elimination, 8 ECMO patients, 64 total plasma concentrations (UHPLC-MS/MS), IV infusion, LD 70 mg then 50 or 70 mg daily) was 0.55 (11.9) L/h and the “V, Estimate (%RSE)” value ([2]; typical population value, final one-compartment model, LBW centred on 58.9 kg, 8 ECMO patients, 64 total plasma concentrations) was 8.13 (7.15) L. The “dose demonstrated to be safe” value [3] was “up to 200 mg/day”, the “AUC0–24 exposure reported in ICU patients” value [4] was 74 to 135 µg·h/mL and the “typical clearance in other studies” value [4] was 0.27 to 0.98 L/h. The “typical volume of distribution in other studies” value [4] was 6.19 to 20.91 L.
